Reference: the RepoRT retention time repository (doi:10.1016/j.chroma.2015.11.014)

Test: RP, Agilent ZORBAX Eclipse Plus C18, 150 × 2.1 mm, 3.5 µm, 40 °C, 0.3 mL/min, estimated dead time 1.1 min; A: water + 0.1% formic acid; B: acetonitrile + 0.1% formic acid; gradient (min/%B) 0/2 1/2 2/20 16.5/98 22/98
Conditions: stereoisomer not certain

| LC retention time [min] | Structure (SMILES) |
| --- | --- |
| 5.2 | Nc1nc(N)c2nc(-c3ccccc3)c(N)nc2n1 |
| 13.6 | CCCCCCCCCCC(C(=O)OCCCCCC)[N+](C)(C)Cc1ccccc1 (stereo unspecified) |
| 7.63 | Cc1cccc(Nc2ccncc2S(=O)(=O)NC(=O)NC(C)C)c1 |
| 10 | CCOc1nc2cccc(C(=O)O)c2n1Cc1ccc(-c2ccccc2-c2nn[nH]n2)cc1 |
| 8.55 | CCCSc1ccc2nc(NC(=O)OC)[nH]c2c1 |
| 16.4 | CCCCCCCC[P+](CCCCCCCC)(CCCCCCCC)CCCCCCCC |
| 10.7 | CCOC(=O)c1ccc(O)c([N+](=O)[O-])c1 |
| 4.78 | Cc1c(N)c(=O)n(-c2ccccc2)n1C |
| 2.34 | Cn1c(N)nc2nc[nH]c2c1=O |
| 11.4 | CCCCC(=O)N(Cc1ccc(-c2ccccc2-c2nn[nH]n2)cc1)C(C(=O)O)C(C)C (stereo unspecified) |
| 5.62 | NC(Cc1ccc(Oc2ccc(O)cc2)cc1)C(=O)O (stereo unspecified) |
| 13.7 | CC(=O)OC1(C(C)=O)CCC2C3CC(C)C4=CC(=O)CCC4(C)C3CCC21C (stereo unspecified) |
| 12.8 | CCCCCCCCCCCCCC[N+](C)(C)Cc1ccccc1 |
| 6.9 | CCCCCCCCN |
| 5.24 | Nc1ccc(S(=O)(=O)Nc2ncccn2)cc1 |
| 2.57 | c1ncc2[nH]cnc2n1 |
| 11 | Cc1ccccc1NC(=O)NC1CCCCC1 |
| 18.4 | CCCCCCCCCCCCCCCC[N+](C)(C)CCCCCCCCCCCCCCCC |
| 7.06 | CC(C)NCC(O)COc1ccc(CCOCC2CC2)cc1 (stereo unspecified) |
| 7.21 | O=C([O-])CCCC[P+](c1ccccc1)(c1ccccc1)c1ccccc1 |
| 10.9 | CCCCCCCCCCC(C(=O)c1ccc(OC)c(OC)c1)[N+](C)(C)C (stereo unspecified) |
| 6.42 | CC(O)CCCCn1c(=O)c2c(ncn2C)n(C)c1=O (stereo unspecified) |
| 12.4 | CCOC(=O)C1=C(C)NC(C)=C(C(=O)OC)C1c1cccc([N+](=O)[O-])c1 (stereo unspecified) |
| 6.83 | Cc1c(O)c(=O)n(-c2ccccc2)n1C |
| 4.98 | CN(Cc1cnc2nc(N)nc(N)c2n1)c1ccc(C(=O)NC(CCC(=O)O)C(=O)O)cc1 (stereo unspecified) |

| LC retention time [min] | Structure (SMILES) |
| --- | --- |
| 5.55 | Nc1ccc(S(=O)(=O)Nc2ccccn2)cc1 |
| 4.12 | CC1=CC(=O)NS(=O)(=O)O1 |
| 4.82 | CC1(C)CCCC(C)(C)N1 |
| 14.9 | CCCCCCCCCCCCCCCCCC[N+](C)(C)Cc1ccccc1 |
| 3.21 | CC(C)NCC(O)COc1ccc(C(O)C(N)=O)cc1 (stereo unspecified) |
| 9.12 | S=c1[nH]c2ccccc2s1 |
| 9.18 | O=C1NC(=O)C(c2ccccc2)(c2ccccc2)N1 |
| 16 | CCCCCCCCCCCCOC(=O)c1cc(O)c(O)c(O)c1 |
| 8.16 | Nc1ccc2c(c1)C(=O)OC21c2ccc(O)cc2Oc2cc(O)ccc21 |
| 5.78 | c1ccc2nc3ccccc3cc2c1 |
| 9.02 | CC1CC2C(C(O)CC3(C)C2CCC3(O)C(=O)CO)C2(C)C=CC(=O)C=C12 (stereo unspecified) |
| 3.4 | Nc1ncnc2c1ncn2C1CC(O)C(CO)O1 (stereo unspecified) |
| 10.9 | CC(C(=O)O)c1cccc(C(=O)c2ccccc2)c1 (stereo unspecified) |
| 13.7 | CCSc1nc2ccccc2s1 |
| 5.16 | c1cncc(-c2nc3ccccc3[nH]2)c1 |
| 9.65 | CN(CC=CC#CC(C)(C)C)Cc1cccc2ccccc12 |
| 3.67 | Oc1ccc(O)cc1 |
| 12.6 | O=C1CC(c2ccccc2)Oc2ccccc21 (stereo unspecified) |
| 12.3 | Cc1cc(OCCOCC[N+](C)(C)Cc2ccccc2)ccc1C(C)(C)CC(C)(C)C |
| 14.5 | O=C1OCCOC(=O)c2ccc(cc2)C(=O)OCCOC(=O)c2ccc(cc2)C(=O)OCCOC(=O)c2ccc1cc2 |
| 12.6 | CCCCCCCCN1CCCC1=O |
| 5.62 | Cc1c(NC=O)c(=O)n(-c2ccccc2)n1C |
| 10.8 | O=C(O)c1cc(O)c2c(c1)C(=O)c1cccc(O)c1C2=O |
| 5.06 | Cn1c(=O)[nH]c2ncn(C)c2c1=O |
| 6.32 | COc1ccc(C(CN)C2(O)CCCCC2)cc1 (stereo unspecified) |

| LC retention time [min] | Structure (SMILES) |
| --- | --- |
| 16.2 | CCCCCCCC[N+](CCCCCCCC)(CCCCCCCC)CCCCCCCC |
| 11.1 | CCCCP(=O)(CCCC)CCCC |
| 6.96 | COc1ccc(O)cc1 |
| 9.35 | CCCCC1=NC2(CCCC2)C(=O)N1Cc1ccc(-c2ccccc2-c2nn[nH]n2)cc1 |
| 14.7 | CCCCCCC[N+](CCCCCCC)(CCCCCCC)CCCCCCC |
| 11.6 | CCCCCCCCCCCC[N+](C)(C)Cc1ccccc1 |
| 15.2 | CCCCCCCCCCCCCCCC(=O)OCC(COP(=O)([O-])OCC[N+](C)(C)C)OC(=O)CCCC(=O)O (stereo unspecified) |
| 8.78 | c1ccc2scnc2c1 |
| 7.08 | COc1ncnc(NS(=O)(=O)c2ccc(N)cc2)c1OC |
| 5.4 | Cc1ccc(S(=O)(=O)O)cc1 |
| 5.9 | Cc1cn(C2CC(N=[N+]=[N-])C(CO)O2)c(=O)[nH]c1=O (stereo unspecified) |
| 9.47 | CCCCCCCCCCCCN |
| 7.19 | O=C([O-])CCC[P+](c1ccccc1)(c1ccccc1)c1ccccc1 |
| 10.5 | O=P(c1ccccc1)(c1ccccc1)c1ccccc1 |
| 4.73 | Cn1c(=O)c2ncn(C)c2n(C)c1=O |
| 9.54 | Cc1c(C(C)C)c(=O)n(-c2ccccc2)n1C |
| 1.52 | CN(C)C(=N)N=C(N)N |
| 7.26 | O=C1NC(=O)C(c2ccccc2)(c2ccc(O)cc2)N1 (stereo unspecified) |
| 11.8 | CC(=O)C1(O)CCC2C3CCC4=CC(=O)CCC4(C)C3CCC21C (stereo unspecified) |
| 4.86 | CCOC(=O)Nc1ccc(N)cc1 |
| 8.67 | COCP(=O)(c1ccccc1)c1ccccc1 |
| 5.37 | Cn1cnc([N+](=O)[O-])c1Sc1ncnc2nc[nH]c12 |
| 6.51 | COc1ccc(NC(C)=O)cc1 |
| 9.8 | CN1CC(=O)N2C(Cc3c([nH]c4ccccc34)C2c2ccc3c(c2)OCO3)C1=O (stereo unspecified) |
| 8.03 | O=C(O)c1ccc(-c2ccccc2-c2nn[nH]n2)cc1 |

| Structure (SMILES) | LC retention time [min] |
| --- | --- |
| CC12CCC3C4CCC(=O)C=C4CCC3C1CCC2O (stereo unspecified) | 10.4 |
| CCNc1nc(NC(C)C)nc(SC)n1 | 8.65 |
| CCCCCCOC(=O)c1ccccc1C(=O)OCCCCCC | 18.1 |
| Cc1cc(C2CC2)nc(Nc2ccccc2)n1 | 10.8 |
| CC1(C)CC(O)CC(C)(C)N1O | 5.7 |
| CNC(=O)ON=CC(C)(C)SC | 8.4 |
| CC(C)(C)P(C(C)(C)C)C(C)(C)C | 5.22 |
| O=P(Oc1ccccc1)(Oc1ccccc1)Oc1cccc(OP(=O)(Oc2ccccc2)Oc2ccccc2)c1 | 15.9 |
| C=CCC1=C(C)C(OC(=O)C2C(C=C(C)C)C2(C)C)CC1=O (stereo unspecified) | 16.1 |
| CC12CCC(=O)C=C1CCC1C2CCC2(C)C1CCC2(C)O (stereo unspecified) | 11.6 |
| CCC(C(N)=O)N1CCCC1=O (stereo unspecified) | 5.14 |
